Tested on: thromboxane receptor
Assay: Absence of Agonist Activity (pressor response in pithed rats)
Type: in vivo, rat
Source text: 3. Absence of Agonist Activity.

pressor response (TXA2 agonist activity) (i.v., pithed rats, doses up to 10 mg/kg) | Structure (SMILES) | increase in the mean arterial pressure (0.1 mg/kg i.v., at one minute after dosing)
absence of a pressor response | O=C(O)CCCC/C=C(\c1ccc(-c2nc(C(=O)NCCCCC3CCCCC3)co2)cc1)c1cccnc1 [Example 2, (E)-7-[4-[4-[[(4-Cyclohexylbutyl)amino]carbonyl]-2-oxazolyl]phenyl]-7-(3-pyridyl)hept-6-enoic Acid] | 
 | O=C(O)CCC/C=C\CC1C2CCC(C2)C1NS(=O)(=O)c1ccccc1 (centres unmarked) [Example S-145] | transient, but significant, increase in the mean arterial pressure

— patent US5849766A, “Carbamoyl substituted heterocycles” (Eli Lilly and Company, priority 1997, dated 1998)
